Like-named read-outs stand apart in the source and are kept apart here.
How the values were obtained:
MAGL = molecular target: T1, MAGL (Mus musculus, UniProt O35678); assay: In vivo MAGL inhibition in mouse brain proteomes after oral gavage; conditions: 5 mg/kg oral gavage, 4 h after administration, read-out: MAGL % inh. 5 mg/kg (mouse)
T1 construct: brain proteomes were prepared and analyzed according to previously established methods; from tissue; host or cells: brain of wild-type C57Bl/6J mice
T1 sequence (O35678 1-303): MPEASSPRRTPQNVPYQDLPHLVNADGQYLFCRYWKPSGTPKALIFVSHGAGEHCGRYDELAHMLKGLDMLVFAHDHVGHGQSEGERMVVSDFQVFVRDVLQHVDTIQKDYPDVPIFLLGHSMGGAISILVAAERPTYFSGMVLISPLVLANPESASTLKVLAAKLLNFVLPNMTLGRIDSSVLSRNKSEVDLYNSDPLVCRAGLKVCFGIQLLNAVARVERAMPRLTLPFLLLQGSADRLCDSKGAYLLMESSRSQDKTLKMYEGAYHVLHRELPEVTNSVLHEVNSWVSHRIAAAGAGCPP
Experimental: Inhibitors were administered to wild-type C57B1/6J by oral gavage in a vehicle of polyethylene glycol. Each animal was sacrificed 4 h following administration and brain proteomes were prepared and analyzed according to previously established methods (See Niphakis, M. J., et al. (2011) ACS Chem. Neurosci. and Long, J. Z., et al. Nat. Chem. Biol. 5:37-44).

[1] = Rat Kp, brain disposition after oral gavage; format: in vivo; conditions: for Total plasma concentration / Total blood concentration / Total brain concentration: 5 mg/kg oral gavage; for Total plasma concentration / Kp at 4 h / Kp uu at 4 h: 4 h; for Total plasma concentration: calculated from total blood concentration using blood to plasma ratio; for Total blood concentration / Total brain concentration: 4 h post dosing, mean n = 3; for Kp at 4 h / Kp uu at 4 h: male, Sprague-Dawley, po, 5 mg/kg p.o.; for Kp at 4 h: total brain concentration:total plasma concentration ratio; for Kp uu at 4 h: unbound brain concentration:unbound plasma concentration ratio
Experimental: (§1) Brain disposition was evaluated in male Sprague-Dawley rats (n=3, standard body weight). Briefly, test compound was formulated as a simple suspension, in 0.5% HPMC in water, then administered by oral gavage (5 mg/kg, 5 mL/kg). Four hours post dosing, rats were sacrificed, and terminal blood and brain samples were taken. Blood was obtained via cardiac puncture (0.1 mL) and was added into 0.4 mL CH3CN for precipitation immediately. The samples were stored at −75+/−15° C. prior to analysis. Brain tissue samples were collected after animals were fully exsanguinated, and the tissues were washed with cold saline quickly. After sectioning, brain sections were immediately frozen in liquid nitrogen and stored at −75+/−15° C. prior to analysis. Blood and brain samples were analyzed by LC/MS/MS using an optimized analytical method. Concentrations of test compound in blood and brain were quantified against matrix matched calibration standards. The total blood, plasma, and brain concentration data are presented in Table 2 alongside the calculated brain Kp (total brain concentration:total plasma concentration ratio), the calculated brain kp,uu (unbound brain concentration:unbound plasma concentration ratio), the free fractions in rat plasma and brain, and the in vitro rat blood to plasma distribution profile. The total plasma concentration data were calculated from the total blood concentration data using rat blood to plasma ratio which was measured in vitro (1 μM test compound). For kp,uu determination, the free fraction in rat plasma and brain homogenate were measured in vitro by standard equilibrium dialysis (1 μM test compound and 6 h equilibration against buffer pH 7.4; for rat plasma analysis, 100 mM stock solution of diisopropyl fluorophosphate was added to the pre-warmed rat plasma prior to adding test article).

[2] = Free fraction in rat plasma and brain homogenate by equilibrium dialysis; format: in vitro ADME
Experimental: as §1

[3] = Kinetic solubility in PBS; format: physicochemical; conditions: aqueous buffer, kinetic from dmso stock
Method in brief: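 Solubility measured in PBS at pH 2.0 and pH 7.4, in duplicate, starting from 10 mM DMSO stock; shaken 2 h at RT at 1,100 RPM. Filtrate diluted and quantified by LC-MS/MS (positive MRM) against a DMSO standard of known concentration.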

[4] = Thermodynamic solubility in PBS; format: physicochemical; conditions: aqueous buffer, thermodynamic from solid; PBS pH 7.4; 24 hours at RT
Experimental: The thermodynamic solubility of test article was determined in PBS at pH 7.4 in duplicate. The test article (1.5 mg) in PBS was incubated for 24 hours at RT with shaking at 1100 rpm. Sample was then filtered using a vacuum manifold, diluted, and analyzed by LC-MS/MS. Chromatographic conditions: Phenomenex Synergi 4μ Hydro-PR 80A column (2.0×30 mm) coupled with pre-guard column; mobile phase=0.1% formic acid in acetonitrile and 0.1% formic acid in water; flowrate=0.65 mL/min; column temperature=40 degrees C.; injection volume: 10 μL.
Mobile phase: 0.1% formic acid in acetonitrile (A) and 0.1% formic acid in water (B)
Mass conditions: Turbo spray ion source; ESI ionization model; MRM scan type; Collison gas=6 L/min; Curtain gas=30 L/min; Nebulize gas=50 L/min; Auxiliary gas=50 L/min; Temperature=500 degrees C.; Ion spray voltage=+5500 v (positive MRM).
The filtered solution was analyzed and quantified against a standard of known concentration in DMSO using UPLC coupled with mass spectral peak identification and quantitation. Solubility values of the test articles were calculated using Microsoft Excel as follows (DF is the dilution factor): […]

[5] = In vitro human hepatocyte stability; format: in vitro ADME; conditions: cryopreserved human hepatocytes (pooled donor), human hepatocytes 0.5×10^6 cells/mL, read-out: Scaled-up unbound CLint
Experimental: The metabolic stability of test articles (1 μM) in commercially sourced, pooled donor, cryopreserved human hepatocytes (0.5×10^6 cells/mL) was determined in duplicate. The CLint reactions (250 μL) were initiated by addition of test compound. Aliquots (25 μL) were taken at 0, 15, 30, 45, 60, 90, 120 and 240 minutes and then protein crashed with ice-cold acetonitrile containing internal standard then centrifuged (3220 g for 25 minutes). Supernatant was used for LC-MS/MS analysis. The in vitro half-life (in vitro t1/2) was determined from the slope value: in vitro t1/2=−0.693/k. Conversion of the in vitro t1/2 (in min) into the scale-up unbound intrinsic clearance (Scaled-up unbound CLint, in mL/min/kg) was done using the following equation (mean of duplicate determinations), with data shown in Table 5: Scaled-up unbound CLint=kV/N×scaling factor. V=incubation volume (0.25 mL); N=number of hepatocytes per well ([…]). Scaling factors for in vivo intrinsic clearance prediction are listed below: […]

[6] = rat brain homogenate, buffer pH 7.4, read-out: Rat brain free fraction
[7] = rat plasma, buffer pH 7.4, read-out: Rat plasma free fraction
[8] = PBS pH 2.0, RT, read-out: pH 2 Solubility (kinetic)
[9] = PBS pH 7.4, RT, read-out: pH 7.4 Solubility (kinetic)

## O=C(Nc1cccnn1)[C@H]1CC12CCN(C(=O)OC(C(F)(F)F)C(F)(F)F)CC2 [Example 6, 1,1,1,3,3,3-hexafluoropropan-2-yl (S)-1-(pyridazin-3-ylcarbamoyl)-6-azaspiro[2.5]octane-6-carboxylate]
MAGL
  inhibition at 5 mg/kg: 100%
[1]
  Total plasma concentration: 0.576 µM
  Total blood concentration: 0.415 µM
  Total brain concentration: 1.78 µM
  Kp at 4 h: 3.09
  Kp uu at 4 h: 2.25
[2]; [6]
  fraction unbound at 6 h, 1 μM: 0.04
[2]; [7]
  fraction unbound at 6 h, 1 μM: 0.055
[3]; [8]
  solubility kinetic at 2 h: 240 µM
[3]; [9]
  solubility kinetic at 2 h: 106 µM
[4]
  solubility thermodynamic at 24 h: 71.5 µg/mL
[5]
  CLint scaled at 1 μM: 5.79 mL/min/kg

## O=C(NC1CCOCC1)[C@H]1CC12CCN(C(=O)OC(C(F)(F)F)C(F)(F)F)CC2 [Example 8, 1,1,1,3,3,3-hexafluoropropan-2-yl (S)-1-[(oxan-4-yl)carbamoyl]-6-azaspiro[2.5]octane-6-carboxylate]
MAGL
  inhibition at 5 mg/kg: 100%
[1]
  Total plasma concentration: 0.124 µM
  Total blood concentration: 0.119 µM
  Total brain concentration: 0.255 µM
  Kp at 4 h: 2.06
  Kp uu at 4 h: 0.801
[2]; [6]
  fraction unbound at 6 h, 1 μM: 0.167
[2]; [7]
  fraction unbound at 6 h, 1 μM: 0.427
[3]; [8]
  solubility kinetic at 2 h: 308 µM
[3]; [9]
  solubility kinetic at 2 h: 256 µM
[4]
  solubility thermodynamic at 24 h: 606 µg/mL
[5]
  CLint scaled at 1 μM: 7.75 mL/min/kg

— US11434222B2, “MAGL inhibitors” (H. LUNDBECK A/S, priority 2020, dated 2022)
